Data on three compounds can be found in paper PMC9227765 (Viruses, 2022).

Where two headings read alike, the source gives them in different places.

Data set [1] relates to EV-A71 H strain. Put plainly: CPE protection assay, EV-A71 H strain (CellTiter-Glo). It counts as cell-based. As to conditions: Enterovirus A, 100× TCID50, 72 h.p.i., read-out: EC50 against EV-A71 virus.
The nature of data set [2]: Cytotoxicity, CellTiter-Glo cell viability, RD cells. Type of data set: cell-based, Human. As to conditions: human, read-out: half-cytotoxic concentration (CC50).
A further data set concerns RD cells. Described as above. Type of data set: cell-based, Human.
Data set [3] in a line: Cytotoxicity, CellTiter-Glo cell viability, Vero cells. It counts as cell-based. As to conditions: African green monkey, read-out: half-cytotoxic concentration (CC50).
The next data set concerns Vero cells. Described as above. Type of data set: cell-based.
Data set [4] is described as follows: Cytotoxicity, CellTiter-Glo cell viability, Huh7 cells. Type of data set: cell-based. The following applies: human, read-out: half-cytotoxic concentration (CC50).
The next data set has as its system Huh7 cells. The description is as above. It counts as cell-based.
The subject of another data set is EV-A71 AH08/06 strain. Put plainly: CPE protection assay, EV-A71 clinical isolate AH08/06. Type of data set: cell-based. As to conditions: Enterovirus A, EVA71, Huh-7; EV-A71 AH08/06, Huh7.
Data set [5] concerns EV-D68 STL-2014–12 strain. Nature of the data set: CPE protection assay, EV-D68. The following applies: Enterovirus D, EVD68, EV-D68 STL-2014–12, RD. Type of data set: cell-based.
The subject of data set [6] is CV-A6 TW-2007-00141 strain. Put plainly: CPE protection assay, CV-A6. It counts as cell-based, coxsackievirus A6.
The subject of the next data set is CV-A16 190-D1 strain. Put plainly: CPE protection assay, CV-A16. It counts as cell-based, coxsackievirus A16. The following applies: Enterovirus A, CVA16, CV-A16 190-D1, RD.
In another data set the test system is CV-B3 Nancy strain. Put plainly: CPE protection assay, CV-B3. It counts as cell-based, Coxsackievirus B3. As to conditions: Enterovirus B, CVB3, CV-B3 Nancy, RD.
The subject of data set [7] is EV-A71 virus. Nature of the data set: Viral RNA reduction assay (qRT-PCR) in RD cells. It counts as cell-based, enterovirus A71. The following applies: MOI 0.1, 30 h.p.i.
In data set [8] the test system is EV-A71 virus. Nature of the data set: Virus particle yield in supernatant (TCID50). It counts as cell-based, enterovirus A71. As to conditions: RD cells, MOI 0.1, supernatant, 30 h.p.i.
The subject of data set [9] is EV-A71 virus VP1 protein. Put plainly: Immunofluorescence assay of VP1. It counts as cell-based, enterovirus A71. The following applies: MOI 1, 16 h.p.i.
Data set [10] deals with EV-A71 virus VP1 protein. Nature of the data set: Western blot of VP1. It counts as cell-based, enterovirus A71. The following applies: RD cells, 24 h; dose-dependent; EIDD-1931 10 to 0.63 μM, EIDD-2801 100 to 6.3 μM.
The test system of data set [11] is EV-A71 virus (H strain). Put plainly: Lethal EV-A71 challenge of 1-day-old ICR suckling mice: survival and body weight. Type of data set: in vivo.
For data set [12], the system named is EV-A71 virus (H strain). Put plainly: Viral RNA loads in tissues of EV-A71-infected suckling mice (qRT-PCR). It counts as in vivo. The following applies: 200 mg/kg i.p. for 4 consecutive days.
The conditions of data set [13]: in vivo, po, 800 mg; cited from earlier work.
Another data set has as its system EV-A71. Also on record: method as in earlier work. As to conditions: cited from earlier work.
The test system of data set [14] is EV-A71 H strain. Nature of the data set: Time-of-drug-addition assay (qRT-PCR). It counts as cell-based, enterovirus A71. As to conditions: RD cells, 10 μM, MOI 0.01, 30 h.p.i.
[15] abbreviates: Enterovirus A, CVA6, CV-A6 TW-2007-00141, RD.
Setting [16] is: 66.6 mg/kg (66.67 printed for EIDD-2801) i.p. once a day for 7 days, until 21 d.p.i.
Setting [17] is: 200 mg/kg i.p. once a day for 7 days, observed until 21 d.p.i.

`CC(C)C(=O)OC[C@H]1O[C@@H](n2ccc(NO)nc2=O)[C@H](O)[C@@H]1O` [EIDD-2801, molnupiravir]: the 50% effective concentration (EC50) in the data set with EV-A71 H strain [1] (EVA71, Huh-7, Huh7 cells) is 35.6 ± 0.47 µM; with EV-A71 H strain [1] (EVA71, RD cells), 70.1 ± 4.4 µM; in the data set with EV-A71 H strain [1] (EVA71, Vero cells), 88.5 ± 3.18 µM; with EV-A71 AH08/06 strain, 30.3 ± 0.55 µM; in [5] it was 86.2 ± 9.17 µM; in data set [6] (setting [15]), more than 100 µM. Besides, the EC50 in the data set on CV-A16 190-D1 strain amounted to 44.9 ± 4.23 µM; in the data set on CV-B3 Nancy strain it was 87.2 ± 10.8 µM. For the same compound, the CC50 at 72 h in data set [2], in data set [3] and in data set [4] was more than 100 µM each time. The “half-cytotoxic concentration (CC50)” value with RD cells, in the data set with Vero cells and in the data set on Huh7 cells was “no significant cytotoxicity” in each case. Moreover, the “replication of viral RNA (qRT-PCR)” value in the data set with EV-A71 virus [7] is “inhibited the replication of viral RNA in a dose-dependent manner”. The “propagation of infectious viral particles” value in the data set on EV-A71 virus [8] is given as “inhibited”. Also, the “expression of EV-A71 VP1 protein (immunofluorescence)” value with EV-A71 virus VP1 protein [9] (100 µM) is listed as “partly inhibited”. Moreover, in the data set on EV-A71 virus VP1 protein [10], the “expression levels of viral VP1 proteins (Western blot)” value was “significantly attenuated”. The survival in the data set on EV-A71 virus (H strain) [11] (setting [16]) is reported as 67%; in the data set with EV-A71 virus (H strain) [11] (setting [17]), 100%. In addition, the “viral RNA loads in brain, heart, intestine, liver, limb muscle and lung” value in the data set with EV-A71 virus (H strain) [12] is on record as “significantly reduced”. The highest concentration (Cmax) in [13] is 16.1 µM.
Take `C#C[C@@]1(O)[C@H](O)[C@@H](CO)O[C@H]1n1ccc2c(N)ncnc21` [NITD008, 7-Deaza-2′-C-acetylene-adenosine]: in the data set with EV-A71, the anti-EV-A71 activity entry was “potent anti-EV-A71 activity”.
In the case of `O=c1[nH]c(=NO)ccn1[C@@H]1O[C@H](CO)[C@@H](O)[C@H]1O` [EIDD-1931, β-D-N^4-hydroxycytidine], the EC50 in the data set with EV-A71 H strain [1] (EVA71, Huh-7, Huh7 cells) was 4.43 ± 0.33 µM; with EV-A71 H strain [1] (EVA71, RD cells) it was 5.13 ± 0.56 µM; with EV-A71 H strain [1] (EVA71, Vero cells), 7.04 ± 0.38 µM; in the data set with EV-A71 AH08/06 strain, 2.79 ± 0.89 µM; in data set [6] (CV-A6 TW-2007-00141, RD) it was 15.7 ± 0.38 µM; in data set [6] (setting [15]) it was less than 20 µM. Further, the CC50 at 72 h in data set [2] turned out to be 80.47 ± 0.02 µM; in [3], 14.1 ± 0.43 µM; in data set [4], 34.09 ± 0.06 µM. For the same compound, the “replication of viral RNA (qRT-PCR)” value in the data set on EV-A71 virus [7] was “inhibited the replication of viral RNA in a dose-dependent manner”. For the same compound, the “propagation of infectious viral particles” value in the data set with EV-A71 virus [8] is reported as “inhibited”. Besides, in the data set on EV-A71 virus VP1 protein [9] (10 µM), the “expression of EV-A71 VP1 protein (immunofluorescence)” value is recorded as “almost completely blocked”. For the same compound, the “expression levels of viral VP1 proteins (Western blot)” value in the data set with EV-A71 virus VP1 protein [10] is “significantly attenuated”. For the same compound, the “EV-A71 viral RNA production, drug added at stages III and IV (post-entry)” value in the data set with EV-A71 H strain [14] is reported as “inhibited”. Moreover, the survival protection in the data set with EV-A71 virus (H strain) [11] (22.2 mg/kg i.p. once a day for 7 days, until 21 d.p.i.) is 60%. Moreover, the survival entry in the data set with EV-A71 virus (H strain) [11] (setting [16]) and with EV-A71 virus (H strain) [11] (setting [17]) was “all survived” each time. Moreover, the body weight result in the data set with EV-A71 virus (H strain) [11] (66.6 mg/kg i.p. for 7 days, until 21 d.p.i.) was “good weight maintenance and growth”; in the data set on EV-A71 virus (H strain) [11] (200 mg/kg i.p. for 7 days, until 21 d.p.i.), “good weight maintenance and growth”. Also, the “time within which the mice died” value in the data set with EV-A71 virus (H strain) [11] (low-dose group 7.41 mg/kg i.p. once a day for 7 days) is reported as not above 12 days. Further, the “viral RNA loads in brain, heart, intestine, liver, limb muscle and lung” value in the data set with EV-A71 virus (H strain) [12] is given as “significantly reduced”.
